Experimental data published in patent US20240166622A1, “FLUORINATED QUINOLINE, QUINOXALINE AND BENZO[B][1,4]OXAZINE DERIVATIVES AS DIHYDROOROTATE DEHYDROGENASE (DHODH) INHIBITORS FOR THE TREATMENT OF CANCER, AUTOIMMUNE AND INFLAMMATORY DISEASES” (Janssen Biotech, Inc., priority 2019, published 2024).

Legend:
[1] = target: human DHODH (Homo sapiens (Human), UniProt Q02127); experiment: DHODH Enzymatic Assay; assay type: biochemical; details: purified human DHODH, DCIP absorbance, end-point mode
Description: To detect DHODH enzyme activities, dichloroindophenol (DCIP) is added as the final electron acceptor in the assay. DCIP can accept electrons from the reduced coenzyme Q generated in the assay, or from dihydroorotate (DHO) via FMN by binding presumably to the ubiquinone pocket. […] The assay buffer contained […], pH 7.5, 150 mM NaCl, 0.5 mM EDTA, and 0.1% Triton X-100 in MilliQ water. Substrate consisting of 20 mM DHO, 5 mM CoQ6, and 1 mM DCIP in assay buffer, initiates the reaction. […] Absorbance measurements were obtained using the BMG Phera Star plate-reading spectrophotomer. Purified human DHODH was purchased from Proteros (cat. No. PR-0044). Chemicals were purchased from Sigma-Aldrich, Teknova, and Avanti Polar Lipids. Liquid handling was performed using Labcyte Echo and Formulatrix Tempest.

[2] = system: MOLM-13 cells; experiment: MOLM-13 Cellular Assay; assay type: cell-based; details: Homo sapiens, 72 hours, cell viability by CellTiter-Glo
Description: MOLM-13 cells were obtained from DSMZ and were maintained in RPMI 1640+Glutamax+25 mM HEPES (Invitrogen, catalog number 72400) supplemented with 10% heat inactivated fetal bovine serum (FBS; Invitrogen, catalog number 16140). The day prior to assay set-up, cells were pelleted, resuspended in fresh media, counted, and cells were plated at 0.4×10^6 cell/mL in a T150 flask. On the day of the assay, cells were pelleted, resuspend in fresh media, counted, and seeded at 5,000 cells/well in white opaque 96-well tissue culture treated microplates (Perkin Elmer, catalog number 6005680). Cells were exposed to different concentrations of test compounds at 37° C., 5% CO2 for 72 hours immediately after seeding. Cell viability was acquired on a Perkin Elmer Envision 2104 multilabel reader using the CellTiter-Glo assay (Promega) according to the manufacturer's instructions.

Chain of human DHODH (Q02127 whole entry): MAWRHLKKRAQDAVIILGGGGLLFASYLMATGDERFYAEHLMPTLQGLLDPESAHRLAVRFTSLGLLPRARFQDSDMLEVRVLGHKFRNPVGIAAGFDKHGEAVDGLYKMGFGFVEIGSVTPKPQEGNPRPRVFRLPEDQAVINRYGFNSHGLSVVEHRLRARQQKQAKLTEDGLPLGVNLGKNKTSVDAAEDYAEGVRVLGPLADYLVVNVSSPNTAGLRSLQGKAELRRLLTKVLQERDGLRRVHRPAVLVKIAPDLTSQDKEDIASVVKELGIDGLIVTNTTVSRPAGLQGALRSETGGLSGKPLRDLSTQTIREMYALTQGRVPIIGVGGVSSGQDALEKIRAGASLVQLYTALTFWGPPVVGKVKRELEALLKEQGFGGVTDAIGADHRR

IC50 [1]: 5.53 µM
IC50 [2]: > 0.1 µM
Structure (SMILES): CCn1c(CO)nn(-c2cc3c(cc2F)N(C(C)=O)C(c2ccccc2C)CC3C(C)C)c1=O (centres unmarked) [Example 24, 1-(1-Acetyl-7-fluoro-4-isopropyl-2-(o-tolyl)-1,2,3,4-tetrahydroquinolin-6-yl)-4-ethyl-3-(hydroxymethyl)-1H-1,2,4-triazol-5(4H)-one]
